Source: publication PMC5598135 (Toxicology Reports, 2014)

Molecular target: mTOR kinase (Homo sapiens, UniProt P42345)
Assay: cell-free ELISA kinase assay
Assay type: biochemical

Q: `O=C1NC(c2cccc3ncccc23)Nc2ccccc21` (stereo not shown) [DQQ, 2,3-dihydro-2-(quinoline-5-yl) quinazolin-4(1H)-one] was tested. Which IC50 did it give?
A: 6 nM
